Assay [1] has as its target Mast/stem cell growth factor receptor Kit (Homo sapiens) (UniProt P10721). Description: Inhibition of human c-Kit at 18.6 nM by HotSpot assay relative to control.
Assay [2] concerns the target T1, Calcium/calmodulin-dependent protein kinase type IV (Homo sapiens) (UniProt Q16566).
T1 sequence (whole entry): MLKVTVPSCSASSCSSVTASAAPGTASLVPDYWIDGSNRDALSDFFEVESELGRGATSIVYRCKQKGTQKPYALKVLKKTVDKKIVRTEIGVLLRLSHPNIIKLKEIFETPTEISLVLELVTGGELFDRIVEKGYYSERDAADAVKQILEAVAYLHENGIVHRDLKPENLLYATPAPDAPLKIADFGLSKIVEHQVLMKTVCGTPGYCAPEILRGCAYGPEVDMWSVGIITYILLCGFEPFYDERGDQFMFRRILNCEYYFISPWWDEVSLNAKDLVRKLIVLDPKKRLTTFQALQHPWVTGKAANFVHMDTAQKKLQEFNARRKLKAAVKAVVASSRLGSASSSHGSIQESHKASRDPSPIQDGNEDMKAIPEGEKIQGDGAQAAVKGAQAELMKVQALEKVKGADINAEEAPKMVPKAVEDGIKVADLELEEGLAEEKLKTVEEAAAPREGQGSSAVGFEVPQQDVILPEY
In words: Inhibition of human CAMK4 at 18.6 nM by HotSpot assay relative to control.

The target in assay [3] is MAP kinase-interacting serine/threonine-protein kinase 1 (Homo sapiens) (UniProt Q9BUB5). In words: Inhibition of human MNK1 at 18.6 nM by HotSpot assay relative to control.
The target in assay [4] is Protein kinase C gamma type (Homo sapiens) (UniProt P05129). Description: Inhibition of human PKCg at 18.6 nM by HotSpot assay relative to control.
Assay [5] concerns the target T2, cGMP-dependent protein kinase 2 (Homo sapiens) (UniProt Q13237).
T2 sequence (whole entry): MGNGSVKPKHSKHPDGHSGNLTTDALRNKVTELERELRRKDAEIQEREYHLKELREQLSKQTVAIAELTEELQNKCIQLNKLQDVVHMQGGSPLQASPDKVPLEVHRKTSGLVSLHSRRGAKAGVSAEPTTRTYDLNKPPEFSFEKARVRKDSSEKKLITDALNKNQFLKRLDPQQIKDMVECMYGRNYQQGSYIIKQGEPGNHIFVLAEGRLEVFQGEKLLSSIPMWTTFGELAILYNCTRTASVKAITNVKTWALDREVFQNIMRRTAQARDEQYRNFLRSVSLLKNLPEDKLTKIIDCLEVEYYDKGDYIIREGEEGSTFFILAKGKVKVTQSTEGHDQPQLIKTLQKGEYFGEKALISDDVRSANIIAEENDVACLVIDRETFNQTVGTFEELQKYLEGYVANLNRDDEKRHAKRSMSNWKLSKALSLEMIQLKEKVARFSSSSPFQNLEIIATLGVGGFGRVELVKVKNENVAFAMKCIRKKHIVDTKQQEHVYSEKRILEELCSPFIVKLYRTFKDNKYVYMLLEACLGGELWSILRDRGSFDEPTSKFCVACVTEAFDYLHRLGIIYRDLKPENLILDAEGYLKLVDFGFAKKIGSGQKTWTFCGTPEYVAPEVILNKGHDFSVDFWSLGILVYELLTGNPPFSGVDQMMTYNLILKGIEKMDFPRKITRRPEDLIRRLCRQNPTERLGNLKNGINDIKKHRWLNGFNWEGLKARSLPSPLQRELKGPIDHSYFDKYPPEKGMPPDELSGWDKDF
Description: Inhibition of human PRKG2 at 18.6 nM by HotSpot assay relative to control.

For assay [6], the target named is T3, Serine/threonine-protein kinase Nek2 (Homo sapiens) (UniProt P51955).
T3 sequence (whole entry): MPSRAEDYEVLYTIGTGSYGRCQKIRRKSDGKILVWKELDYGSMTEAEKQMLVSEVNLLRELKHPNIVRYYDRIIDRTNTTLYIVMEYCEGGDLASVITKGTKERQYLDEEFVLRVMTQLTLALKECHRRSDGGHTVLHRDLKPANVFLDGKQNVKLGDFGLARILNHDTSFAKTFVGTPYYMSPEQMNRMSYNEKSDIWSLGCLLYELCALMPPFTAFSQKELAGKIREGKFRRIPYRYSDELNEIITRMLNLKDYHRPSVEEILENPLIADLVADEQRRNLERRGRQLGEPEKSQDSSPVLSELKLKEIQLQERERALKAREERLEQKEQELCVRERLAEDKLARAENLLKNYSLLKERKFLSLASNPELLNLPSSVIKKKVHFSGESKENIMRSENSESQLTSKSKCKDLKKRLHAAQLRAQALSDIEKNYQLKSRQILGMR
Description: Inhibition of human NEK2 at 1.82 nM by HotSpot assay relative to control.

Assay [7] addresses Platelet-derived growth factor receptor beta (Homo sapiens) (UniProt P09619). In words: Inhibition of human PDGFRb at 1.82 nM by HotSpot assay relative to control.
The target in assay [8] is T4, cAMP-dependent protein kinase catalytic subunit PRKX (Homo sapiens) (UniProt P51817).
T4 sequence (whole entry): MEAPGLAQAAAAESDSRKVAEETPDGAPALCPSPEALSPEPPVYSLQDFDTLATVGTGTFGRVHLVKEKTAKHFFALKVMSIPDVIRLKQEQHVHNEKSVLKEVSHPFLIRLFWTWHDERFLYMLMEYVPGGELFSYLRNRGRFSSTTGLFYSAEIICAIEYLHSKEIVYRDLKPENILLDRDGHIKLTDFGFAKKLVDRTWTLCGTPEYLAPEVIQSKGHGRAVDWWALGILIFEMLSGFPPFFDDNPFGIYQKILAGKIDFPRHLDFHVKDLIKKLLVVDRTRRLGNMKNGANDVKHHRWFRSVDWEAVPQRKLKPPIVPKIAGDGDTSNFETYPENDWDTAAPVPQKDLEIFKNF
In words: Inhibition of human PRKX at 1.82 nM by HotSpot assay relative to control.

Assay [9] addresses T5, Serine/threonine-protein kinase Sgk1 (Homo sapiens) (UniProt O00141).
T5 sequence (whole entry): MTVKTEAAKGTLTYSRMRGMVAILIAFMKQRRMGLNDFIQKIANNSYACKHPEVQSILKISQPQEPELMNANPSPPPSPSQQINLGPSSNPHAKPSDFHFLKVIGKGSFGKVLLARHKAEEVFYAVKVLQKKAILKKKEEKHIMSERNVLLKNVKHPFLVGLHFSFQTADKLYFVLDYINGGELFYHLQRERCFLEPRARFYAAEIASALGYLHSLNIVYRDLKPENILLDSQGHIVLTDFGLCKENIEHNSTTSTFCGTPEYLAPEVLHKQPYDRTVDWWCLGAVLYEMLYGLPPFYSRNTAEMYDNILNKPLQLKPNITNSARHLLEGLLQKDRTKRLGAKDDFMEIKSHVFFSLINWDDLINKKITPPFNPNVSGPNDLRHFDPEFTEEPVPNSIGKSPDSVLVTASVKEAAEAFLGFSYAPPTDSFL
Description: Inhibition of human SGK1 at 1.82 nM by HotSpot assay relative to control.

The structures appear in SMILES notation.

Chain of Mast/stem cell growth factor receptor Kit (Homo sapiens) (P10721 whole entry): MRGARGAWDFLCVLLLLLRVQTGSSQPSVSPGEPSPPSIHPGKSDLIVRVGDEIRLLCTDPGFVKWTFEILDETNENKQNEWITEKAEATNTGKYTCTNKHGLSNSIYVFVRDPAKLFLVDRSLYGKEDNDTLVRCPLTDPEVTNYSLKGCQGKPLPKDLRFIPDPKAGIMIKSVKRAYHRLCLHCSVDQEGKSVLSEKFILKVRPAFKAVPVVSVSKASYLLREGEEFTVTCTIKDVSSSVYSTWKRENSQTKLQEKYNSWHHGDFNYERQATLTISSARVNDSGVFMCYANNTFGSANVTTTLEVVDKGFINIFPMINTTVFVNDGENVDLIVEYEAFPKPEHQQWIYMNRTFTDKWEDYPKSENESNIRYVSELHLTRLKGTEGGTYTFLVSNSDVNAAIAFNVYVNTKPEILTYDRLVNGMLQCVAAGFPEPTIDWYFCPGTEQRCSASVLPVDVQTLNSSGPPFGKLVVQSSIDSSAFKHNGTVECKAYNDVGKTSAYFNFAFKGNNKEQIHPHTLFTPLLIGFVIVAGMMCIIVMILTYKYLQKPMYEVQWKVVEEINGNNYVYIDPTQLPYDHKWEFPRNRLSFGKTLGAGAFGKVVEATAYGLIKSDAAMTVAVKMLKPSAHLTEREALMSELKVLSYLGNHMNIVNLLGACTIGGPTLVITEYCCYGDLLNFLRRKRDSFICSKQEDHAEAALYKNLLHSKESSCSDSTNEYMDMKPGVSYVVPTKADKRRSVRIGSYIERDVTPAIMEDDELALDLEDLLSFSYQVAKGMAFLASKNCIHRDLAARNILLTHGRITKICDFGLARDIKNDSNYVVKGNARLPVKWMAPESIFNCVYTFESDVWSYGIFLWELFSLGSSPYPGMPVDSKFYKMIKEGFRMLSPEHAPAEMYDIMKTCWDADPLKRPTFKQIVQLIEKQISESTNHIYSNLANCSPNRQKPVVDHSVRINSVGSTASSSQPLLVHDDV
Chain of Platelet-derived growth factor receptor beta (Homo sapiens) (P09619 whole entry): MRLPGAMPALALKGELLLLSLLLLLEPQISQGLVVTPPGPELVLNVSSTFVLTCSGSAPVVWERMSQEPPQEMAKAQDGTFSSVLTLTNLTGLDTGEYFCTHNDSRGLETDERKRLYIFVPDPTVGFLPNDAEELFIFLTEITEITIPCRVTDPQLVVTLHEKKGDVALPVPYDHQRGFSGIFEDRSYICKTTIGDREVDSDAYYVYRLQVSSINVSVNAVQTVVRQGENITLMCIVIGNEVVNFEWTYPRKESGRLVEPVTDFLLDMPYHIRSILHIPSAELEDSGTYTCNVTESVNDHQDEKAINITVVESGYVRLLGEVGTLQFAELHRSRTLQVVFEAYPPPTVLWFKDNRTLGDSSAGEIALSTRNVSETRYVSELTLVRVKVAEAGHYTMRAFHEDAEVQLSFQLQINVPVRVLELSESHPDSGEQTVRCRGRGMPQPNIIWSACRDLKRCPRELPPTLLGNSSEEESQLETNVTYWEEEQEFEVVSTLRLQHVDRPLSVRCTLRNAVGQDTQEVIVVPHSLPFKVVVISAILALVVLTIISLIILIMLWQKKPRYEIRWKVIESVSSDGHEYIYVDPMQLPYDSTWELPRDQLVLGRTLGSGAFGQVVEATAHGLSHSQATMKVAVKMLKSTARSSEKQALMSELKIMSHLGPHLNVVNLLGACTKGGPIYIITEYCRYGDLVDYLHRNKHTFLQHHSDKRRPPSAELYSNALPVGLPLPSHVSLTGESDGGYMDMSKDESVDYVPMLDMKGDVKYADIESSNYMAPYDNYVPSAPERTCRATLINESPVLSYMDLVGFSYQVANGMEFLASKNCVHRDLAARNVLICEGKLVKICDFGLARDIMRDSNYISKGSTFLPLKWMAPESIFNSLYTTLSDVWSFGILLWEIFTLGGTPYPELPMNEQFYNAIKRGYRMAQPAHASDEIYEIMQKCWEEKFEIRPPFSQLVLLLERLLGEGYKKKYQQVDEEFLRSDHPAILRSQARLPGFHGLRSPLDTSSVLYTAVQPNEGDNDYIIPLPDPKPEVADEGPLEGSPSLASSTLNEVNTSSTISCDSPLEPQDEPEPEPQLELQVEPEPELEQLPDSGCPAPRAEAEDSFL
Chain of MAP kinase-interacting serine/threonine-protein kinase 1 (Homo sapiens) (Q9BUB5 whole entry, looked up): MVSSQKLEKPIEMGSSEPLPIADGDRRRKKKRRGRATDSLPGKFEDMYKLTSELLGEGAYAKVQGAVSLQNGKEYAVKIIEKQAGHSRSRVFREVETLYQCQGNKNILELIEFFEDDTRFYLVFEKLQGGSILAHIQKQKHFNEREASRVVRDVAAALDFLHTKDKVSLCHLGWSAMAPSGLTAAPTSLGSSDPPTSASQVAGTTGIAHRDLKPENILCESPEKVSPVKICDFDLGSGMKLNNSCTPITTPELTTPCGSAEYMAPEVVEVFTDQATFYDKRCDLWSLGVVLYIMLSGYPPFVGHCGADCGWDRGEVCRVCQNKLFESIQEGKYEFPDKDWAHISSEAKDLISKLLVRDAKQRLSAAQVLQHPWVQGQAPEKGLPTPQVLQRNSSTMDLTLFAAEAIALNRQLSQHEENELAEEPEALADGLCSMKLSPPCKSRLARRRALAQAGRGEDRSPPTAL

Turning to `C[C@]1(O)C[C@@H](c2nc(-c3ccc4ccc(-c5ccccc5)nc4c3)c3c(N)nccn32)C1`, the inhibition (commonly the change of the read-out against control, counted positive when it falls) in assay [1] is 2.65%; in [2] it was 4.07%; in assay [3], 0.3%; in assay [4] it was -8%; in assay [5] it was -3.76%.

For `C[C@@]1(C(=O)Nc2ccc(F)nc2)CCCN1c1nc(Nc2cc(C3CC3)n[nH]2)c2cccn2n1`, the inhibition in assay [6] is 0.74%; in [7], 10.8%; in assay [8] it was 0.19%; in assay [9], -2.56%.

The values are drawn from ChEMBL document CHEMBL5653615 (J Biol Chem, 2013).
